Data from patent publication US20100227853A1, “INHIBITORS OF CYCLIC AMP PHOSPHODIESTERASES” (Trustees of Boston College, priority 2008, published 2010).
Values belong to the compound of their own block, whether it stands above or below them.

Assays:
[1] = test system: PDE2A, PDE4A, PDE4B, Cgs2; assay: Parallel high throughput 5FOA growth screens of bioactive libraries; type: cell-based, murine PDEs; yeast Cgs2; conditions: 3,120 bioactive compounds, average 20 μM
Protocol: High throughput drug screens were carried out at the Broad Institute's Chemical Biology Program screening facility (Broad Institute, Cambridge, Mass.). Depending upon the strain, cultures were pregrown to exponential phase in EMM complete medium containing from 0.5 to 2.5 mM cAMP to repress fbp1-ura4 transcription. […] Starting cell concentrations ranged from 0.5×10^5 to 4×10^5 cells/ml depending on the screening strain. […] Other positive control dishes contained 5 mM cAMP in the 5FOA medium. Cultures were grown for 48 hours at 30° C., sealed in an airtight container with moist paper towels to prevent evaporation. Optical densities (OD600) of cultures were measured using a microplate reader. Bioinformatic analysis of the results to determine composite Z scores was performed as previously described^30, 31.

[2] = target: T1, PDE8A (Mus musculus, UniProt O88502); assay: cAMP levels in yeast strain expressing PDE8A; type: cell-based, murine; conditions: rolipram treatment
T1 construct: targets used in the assays are full-length proteins (as opposed to simply the catalytic domain); expressed in transfected cells; host or cells: Schizosaccharomyces pombe, PDE gene integrated in place of cgs2 (strains CHP1141, DDP13)
T1 sequence (O88502 1-823): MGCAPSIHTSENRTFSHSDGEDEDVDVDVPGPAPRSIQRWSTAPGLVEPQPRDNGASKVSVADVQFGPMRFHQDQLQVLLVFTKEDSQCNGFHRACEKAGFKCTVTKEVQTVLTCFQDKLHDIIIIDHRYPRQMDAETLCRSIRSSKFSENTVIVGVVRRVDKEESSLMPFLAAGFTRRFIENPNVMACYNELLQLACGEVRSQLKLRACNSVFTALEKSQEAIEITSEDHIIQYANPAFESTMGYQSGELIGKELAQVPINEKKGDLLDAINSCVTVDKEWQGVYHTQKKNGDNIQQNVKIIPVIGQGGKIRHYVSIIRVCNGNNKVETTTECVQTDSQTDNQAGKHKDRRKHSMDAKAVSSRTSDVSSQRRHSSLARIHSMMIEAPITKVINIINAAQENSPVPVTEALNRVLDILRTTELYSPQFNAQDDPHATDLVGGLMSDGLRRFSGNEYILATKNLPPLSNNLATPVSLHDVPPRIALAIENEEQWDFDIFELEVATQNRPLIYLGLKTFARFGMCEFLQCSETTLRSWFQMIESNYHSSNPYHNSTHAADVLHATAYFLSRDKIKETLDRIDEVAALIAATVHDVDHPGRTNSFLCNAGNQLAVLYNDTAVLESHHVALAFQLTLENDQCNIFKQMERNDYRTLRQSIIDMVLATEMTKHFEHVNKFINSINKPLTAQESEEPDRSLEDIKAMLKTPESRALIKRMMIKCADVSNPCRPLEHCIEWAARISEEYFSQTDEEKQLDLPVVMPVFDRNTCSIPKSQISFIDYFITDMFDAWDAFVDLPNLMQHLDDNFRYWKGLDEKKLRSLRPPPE
Protocol: Values represent the average and SD of two or three independent experiments. […] The strains used are as in FIG. 5A, together with strain CHP1141 (PDE8A). Values represent the average and SD of two or three independent experiments.
(§1) β-galactosidase assays and characterization of 5FOA-sensitivity were carried out as previously described^10. cAMP assays were performed on exponential phase cells grown in EMM complete medium (3% glucose), using the Assay Designs cAMP EIA kit, according to manufacturer's instructions (Assay Designs, Ann arbor, Mich.).
Thus, PDE inhibition can be indirectly quantitated by measuring the effect of a compound on cAMP levels in target yeast strains.

[3] = target: T2, Cgs2 (Schizosaccharomyces pombe, UniProt P36599); assay: fbp1-lacZ β-galactosidase reporter assay, Cgs2 strain; type: cell-based, S. pombe; conditions: strain CHP861 (Cgs2)
T2 construct: expressing either the wild-type S. pombe Cgs2^+ PDE; endogenous in cells; host or cells: Schizosaccharomyces pombe strain CHP861
T2 sequence (P36599 whole entry): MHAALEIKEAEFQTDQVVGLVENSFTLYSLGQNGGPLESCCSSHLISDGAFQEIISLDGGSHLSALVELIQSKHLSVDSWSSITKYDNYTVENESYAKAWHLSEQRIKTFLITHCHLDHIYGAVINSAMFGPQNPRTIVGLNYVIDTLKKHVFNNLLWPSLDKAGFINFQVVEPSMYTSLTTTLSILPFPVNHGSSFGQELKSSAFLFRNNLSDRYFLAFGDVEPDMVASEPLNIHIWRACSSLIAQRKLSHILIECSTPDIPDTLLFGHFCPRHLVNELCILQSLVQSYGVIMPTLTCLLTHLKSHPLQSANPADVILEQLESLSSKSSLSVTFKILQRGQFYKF
Protocol: as §1
(§2) The effect of known PDE inhibitors on the expression of the fbp1-lacZ fusion in murine PDE-expressing strains was tested. […] For Table 4 β-galactosidase activity was determined from 3 to 4 independent exponential phase cultures. The average±SD represents specific activity per milligram of soluble protein.

[4] = target: T1, PDE8A; assay: fbp1-lacZ β-galactosidase reporter assay, PDE8A strain; type: cell-based, murine; conditions: strain DDP13 (PDE8A)
Protocol: as §1, §2

[5] = test system: Cgs2-2; assay: fbp1-lacZ β-galactosidase reporter assay, Cgs2-2 strain; type: cell-based, S. pombe; conditions: strain LWP98 (Cgs2-2)
Protocol: as §1, §2

[6] = test system: U937 cells; assay: TNF alpha release by LPS-treated U937 cells; type: cell-based; conditions: for TNF alpha, % vehicle control: 10 uM cmpd, 0 uM BC30
[7] = target: T3, PDE7B (Homo sapiens, UniProt Q9NP56); assay: in vitro enzyme assay, PDE7B catalytic domain from E. coli, hydrolysis of cAMP to AMP; type: biochemical; design: The PDE7B catalytic domain was expressed in and purified from E. coli; made in house; host or cells: E. coli; conditions: AC200 = [Compound] that doubles PDE activity; read-out: IC50 (or AC200), PDE7B
Protocol: The PDE7B catalytic domain was expressed in and purified from E. coli and tested for activity in an in vitro enzyme assay, measuring the hydrolysis of cAMP to AMP. Four dilutions of the enzyme preparation were tested at various compound concentrations (X axis). The percent of cAMP hydrolyzed is plotted on the Y axis.
Target sequence in this assay (Q9NP56 97-420 limits assumed, species assumed): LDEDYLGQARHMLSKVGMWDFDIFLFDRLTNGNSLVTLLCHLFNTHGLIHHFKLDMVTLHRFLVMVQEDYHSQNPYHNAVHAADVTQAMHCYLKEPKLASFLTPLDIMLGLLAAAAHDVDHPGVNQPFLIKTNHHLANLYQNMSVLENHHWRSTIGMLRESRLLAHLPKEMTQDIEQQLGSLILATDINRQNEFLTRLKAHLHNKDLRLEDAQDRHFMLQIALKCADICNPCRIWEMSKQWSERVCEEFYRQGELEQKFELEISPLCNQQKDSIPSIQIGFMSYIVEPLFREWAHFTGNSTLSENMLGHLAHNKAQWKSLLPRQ

[8] = target: T3, PDE7B; assay: 5FOA growth assay in fission yeast strain expressing PDE7B; type: cell-based; design: targets used in the assays are full-length proteins (as opposed to simply the catalytic domain); expressed in transfected cells; host or cells: Schizosaccharomyces pombe; conditions: OD600 0.6; read-out: ED50 for 5FOA growth assays, PDE7B
Protocol: PDE inhibition allows growth in 5FOA medium as measured by optical density after 48 hours incubation at 30° C. Compound BC12 and six structural analogs were tested for growth stimulation.
Cells were pregrown in EMM medium [MP Biomedicals (Solon, Ohio), 3% glucose, filter-sterilized to avoid carmelization, which would introduce variability into the optical density of the medium] containing from 0 mM to 2.5 mM cAMP (or either 0.5 mM or 1.0 mM cGMP). This was to repress expression of the fbp1-ura4 reporter prior to exposure of cells to 5FOA medium. Cells were grown at 30° C. to exponential phase (approximately 10^7 cells/ml). Cells were collected by centrifugation and resuspended in 5FOA medium, and 25 μl were transferred to 384-well microtiter dishes (untreated, with flat clear bottoms) that had been pre-filled with 25 μl 5FOA medium and pre-pinned with 100 nl of compounds (stock solutions were generally 10 mM). Starting cell concentrations ranged from 0.5×10^5 to 4×10^5 cells/ml depending on the screening strain. […] Other positive control dishes contained 5 mM cAMP in the 5FOA medium for PDEs that lack appropriate control compounds. Cultures were grown for 48 hours at 30° C., sealed in an airtight container with moist paper towels to prevent evaporation. Optical densities (OD600) of cultures were measured using a microplate reader. Bioinformatic analysis of the results to determine composite Z scores was performed as previously described (1, 3).
Target sequence in this assay (Q9NP56 whole entry, species assumed, the tested form may be a part): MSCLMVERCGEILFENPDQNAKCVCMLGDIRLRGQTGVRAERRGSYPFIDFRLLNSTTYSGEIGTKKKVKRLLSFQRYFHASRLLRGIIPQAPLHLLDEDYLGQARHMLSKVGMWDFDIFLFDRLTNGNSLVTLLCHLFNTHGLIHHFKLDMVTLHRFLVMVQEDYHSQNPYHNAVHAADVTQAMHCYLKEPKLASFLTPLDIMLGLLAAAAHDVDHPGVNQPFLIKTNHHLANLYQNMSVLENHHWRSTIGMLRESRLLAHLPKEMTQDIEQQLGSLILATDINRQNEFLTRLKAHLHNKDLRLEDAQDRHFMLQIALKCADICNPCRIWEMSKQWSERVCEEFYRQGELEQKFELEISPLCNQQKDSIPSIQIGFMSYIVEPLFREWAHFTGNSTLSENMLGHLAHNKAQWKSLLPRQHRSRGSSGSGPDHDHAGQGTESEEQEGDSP

[9] = target: T4, PDE7A (Homo sapiens, UniProt Q13946); assay: 5FOA growth assay in fission yeast strain expressing PDE7A; type: cell-based; design: targets used in the assays are full-length proteins (as opposed to simply the catalytic domain); expressed in transfected cells; host or cells: Schizosaccharomyces pombe, PDE gene integrated in place of cgs2; conditions: OD600 0.6; read-out: ED50 for 5FOA growth assays, PDE7A
T4 sequence (Q13946 whole entry, the tested form may be a part): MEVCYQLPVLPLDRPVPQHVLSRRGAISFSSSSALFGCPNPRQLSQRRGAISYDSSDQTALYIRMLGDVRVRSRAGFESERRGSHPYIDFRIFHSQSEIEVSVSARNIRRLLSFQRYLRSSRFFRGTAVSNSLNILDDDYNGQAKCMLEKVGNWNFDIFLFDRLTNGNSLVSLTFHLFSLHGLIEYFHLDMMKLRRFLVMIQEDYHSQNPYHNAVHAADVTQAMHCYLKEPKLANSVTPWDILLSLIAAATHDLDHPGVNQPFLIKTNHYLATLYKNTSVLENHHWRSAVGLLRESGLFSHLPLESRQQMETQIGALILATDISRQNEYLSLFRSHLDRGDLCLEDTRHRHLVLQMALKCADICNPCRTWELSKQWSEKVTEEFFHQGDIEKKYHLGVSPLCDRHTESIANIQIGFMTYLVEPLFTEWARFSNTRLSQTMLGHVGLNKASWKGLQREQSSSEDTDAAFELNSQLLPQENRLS
Method in brief: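 Fission yeast carrying an fbp1-ura4 reporter were pregrown to exponential phase at 30 °C in EMM with 0–2.5 mM cAMP (or 0.5/1.0 mM cGMP), then moved into 5FOA medium with 100 nl pinned compound (10 mM stocks). Growth was read as OD600 after 48 h at 30 °C and scored as composite Z scores.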

[10] = target: PDE4A (Homo sapiens, UniProt P27815); assay: in vitro enzyme assay PDE4A (Table 7); type: biochemical; conditions: 2 micromolar compound; read-out: percent of PDE activity present, PDE4A
Sequence of PDE4A (P27815 whole entry, species assumed): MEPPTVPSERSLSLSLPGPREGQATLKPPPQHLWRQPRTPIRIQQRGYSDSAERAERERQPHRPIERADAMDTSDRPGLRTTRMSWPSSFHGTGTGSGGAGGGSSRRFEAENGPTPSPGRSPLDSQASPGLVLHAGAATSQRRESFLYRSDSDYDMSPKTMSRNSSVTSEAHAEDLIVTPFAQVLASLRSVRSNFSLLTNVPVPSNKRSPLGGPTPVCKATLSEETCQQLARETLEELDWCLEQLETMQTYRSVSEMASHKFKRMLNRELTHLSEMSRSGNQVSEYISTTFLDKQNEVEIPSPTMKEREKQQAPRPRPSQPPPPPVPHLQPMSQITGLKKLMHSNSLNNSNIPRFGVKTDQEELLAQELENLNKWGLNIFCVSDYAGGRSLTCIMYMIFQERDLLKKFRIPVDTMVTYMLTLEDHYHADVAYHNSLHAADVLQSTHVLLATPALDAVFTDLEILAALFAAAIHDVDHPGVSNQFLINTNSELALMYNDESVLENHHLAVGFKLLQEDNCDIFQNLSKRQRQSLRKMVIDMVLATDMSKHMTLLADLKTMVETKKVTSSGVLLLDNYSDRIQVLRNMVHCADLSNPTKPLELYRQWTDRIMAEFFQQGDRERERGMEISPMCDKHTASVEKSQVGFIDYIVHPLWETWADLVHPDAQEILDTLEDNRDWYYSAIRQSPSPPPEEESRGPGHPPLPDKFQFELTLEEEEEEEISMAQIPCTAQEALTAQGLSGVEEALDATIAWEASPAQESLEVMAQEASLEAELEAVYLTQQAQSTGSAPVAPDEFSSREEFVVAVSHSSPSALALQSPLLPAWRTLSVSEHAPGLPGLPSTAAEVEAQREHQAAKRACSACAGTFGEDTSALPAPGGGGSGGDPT

[11] = target: PDE4B (Homo sapiens, UniProt Q07343); assay: in vitro enzyme assay PDE4B (Table 7); type: biochemical; conditions: 2 micromolar compound; read-out: percent of PDE activity present, PDE4B
Sequence of PDE4B (Q07343 whole entry, species assumed): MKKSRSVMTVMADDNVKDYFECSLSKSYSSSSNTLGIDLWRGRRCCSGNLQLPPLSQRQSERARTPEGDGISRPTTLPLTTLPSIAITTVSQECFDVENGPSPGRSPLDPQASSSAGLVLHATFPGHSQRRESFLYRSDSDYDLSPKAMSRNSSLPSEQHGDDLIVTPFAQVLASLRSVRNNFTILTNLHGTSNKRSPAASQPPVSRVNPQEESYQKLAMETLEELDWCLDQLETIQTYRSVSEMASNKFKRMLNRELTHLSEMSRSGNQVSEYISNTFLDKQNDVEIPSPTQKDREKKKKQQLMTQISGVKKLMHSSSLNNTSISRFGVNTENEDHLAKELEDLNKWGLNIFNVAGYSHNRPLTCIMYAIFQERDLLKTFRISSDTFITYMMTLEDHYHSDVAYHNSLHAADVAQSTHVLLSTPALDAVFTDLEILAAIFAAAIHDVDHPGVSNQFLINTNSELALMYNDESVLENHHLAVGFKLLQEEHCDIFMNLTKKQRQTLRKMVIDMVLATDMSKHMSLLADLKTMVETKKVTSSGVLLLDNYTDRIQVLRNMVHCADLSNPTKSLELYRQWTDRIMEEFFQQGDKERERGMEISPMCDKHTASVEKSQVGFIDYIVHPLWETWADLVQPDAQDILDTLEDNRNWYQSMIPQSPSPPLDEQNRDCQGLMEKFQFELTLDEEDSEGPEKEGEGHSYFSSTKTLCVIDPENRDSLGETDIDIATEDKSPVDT

[12] = target: PDE4D (Homo sapiens, UniProt Q08499); assay: in vitro enzyme assay PDE4D (Table 7); type: biochemical; conditions: 2 micromolar compound; read-out: percent of PDE activity present, PDE4D
Sequence of PDE4D (Q08499 whole entry, the tested form may be a part): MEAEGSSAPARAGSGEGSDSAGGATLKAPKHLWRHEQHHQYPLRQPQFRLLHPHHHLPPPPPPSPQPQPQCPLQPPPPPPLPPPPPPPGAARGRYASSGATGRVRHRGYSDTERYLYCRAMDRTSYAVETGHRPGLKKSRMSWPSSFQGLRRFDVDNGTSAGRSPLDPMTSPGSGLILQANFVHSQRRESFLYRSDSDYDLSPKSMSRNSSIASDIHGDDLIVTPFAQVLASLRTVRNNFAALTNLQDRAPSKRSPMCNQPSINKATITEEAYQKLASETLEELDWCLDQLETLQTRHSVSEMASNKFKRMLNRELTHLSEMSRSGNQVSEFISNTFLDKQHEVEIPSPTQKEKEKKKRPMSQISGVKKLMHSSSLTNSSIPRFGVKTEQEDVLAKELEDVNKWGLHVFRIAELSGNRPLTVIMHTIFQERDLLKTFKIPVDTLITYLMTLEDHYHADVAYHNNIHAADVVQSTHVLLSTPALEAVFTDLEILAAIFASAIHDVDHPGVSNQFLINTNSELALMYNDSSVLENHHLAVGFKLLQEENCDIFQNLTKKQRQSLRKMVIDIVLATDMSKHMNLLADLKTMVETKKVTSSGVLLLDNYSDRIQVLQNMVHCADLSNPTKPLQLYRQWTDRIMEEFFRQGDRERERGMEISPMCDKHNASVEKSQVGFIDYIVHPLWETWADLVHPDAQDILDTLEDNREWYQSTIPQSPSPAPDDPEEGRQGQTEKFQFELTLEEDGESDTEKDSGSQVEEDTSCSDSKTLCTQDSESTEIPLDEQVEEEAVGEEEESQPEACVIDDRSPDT

[13] = target: T5, PDE4D2-CAT (Homo sapiens, UniProt Q08499); assay: in vitro enzyme assay, catalytic fragment of PDE4D2 (residues 86-413); type: biochemical; conditions: catalytic fragment; AC200 = [Compound] that doubles PDE activity; read-out: IC50 (or AC200), PDE4D2-CAT
T5 construct: 86-413; made in house; host or cells: E. coli
T5 sequence (Q08499 388-715): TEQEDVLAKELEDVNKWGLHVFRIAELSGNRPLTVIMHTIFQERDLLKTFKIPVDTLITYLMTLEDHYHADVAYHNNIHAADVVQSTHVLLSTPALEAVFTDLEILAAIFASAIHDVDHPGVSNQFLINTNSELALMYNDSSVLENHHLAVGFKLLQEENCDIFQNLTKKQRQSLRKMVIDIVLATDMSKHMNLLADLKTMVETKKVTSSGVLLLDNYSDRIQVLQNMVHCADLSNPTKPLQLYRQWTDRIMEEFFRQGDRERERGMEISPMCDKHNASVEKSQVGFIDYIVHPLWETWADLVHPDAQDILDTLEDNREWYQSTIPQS

[14] = target: T4, PDE7A; assay: in vitro enzyme assay PDE7A; type: biochemical; design: made in house; host or cells: E. coli
[15] = target: PDE4B2 (Homo sapiens, UniProt Q07343); assay: in vitro enzyme assay, E. coli expressed and purified PDE4B2; type: biochemical; design: targets used in the assays are full-length proteins (as opposed to simply the catalytic domain); conditions: read-out: IC50 (or AC200), PDE4B2
Sequence of PDE4B2 (Q07343 1-564 isoform Q07343-2, species assumed): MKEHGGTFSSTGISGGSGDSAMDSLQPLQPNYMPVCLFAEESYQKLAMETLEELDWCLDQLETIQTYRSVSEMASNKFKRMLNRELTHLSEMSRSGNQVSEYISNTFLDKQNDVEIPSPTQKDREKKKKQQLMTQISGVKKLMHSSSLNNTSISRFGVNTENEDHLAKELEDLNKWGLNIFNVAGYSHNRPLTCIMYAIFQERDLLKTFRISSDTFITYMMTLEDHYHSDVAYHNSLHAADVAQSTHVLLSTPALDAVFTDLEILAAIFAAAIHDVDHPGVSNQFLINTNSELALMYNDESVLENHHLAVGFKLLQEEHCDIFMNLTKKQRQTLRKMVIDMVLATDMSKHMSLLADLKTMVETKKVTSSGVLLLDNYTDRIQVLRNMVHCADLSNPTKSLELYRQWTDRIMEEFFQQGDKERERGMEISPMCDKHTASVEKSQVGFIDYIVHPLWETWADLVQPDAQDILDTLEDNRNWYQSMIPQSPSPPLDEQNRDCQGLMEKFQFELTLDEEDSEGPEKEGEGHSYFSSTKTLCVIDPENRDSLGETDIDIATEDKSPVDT

SMILES: COc1ccc(C2CNC(=O)C2)cc1OC1CCCC1 (stereo not shown) [Rolipram, reference compound]
hit in high throughput screens (promotes 5FOA^R growth), in words [1]: only affected the PDE4A- and PDE4B-expressing strains | cAMP levels in PDE8A strain [2]: completely insensitive | β-galactosidase activity ([3]; 50 μM Rolipram, specific activity per milligram of soluble protein, average ± SD): 1807 ± 446 | β-galactosidase activity ([3]; 100 μM Rolipram): 1784 ± 429 | β-galactosidase activity ([4]; 50 μM Rolipram): 253 ± 46 | β-galactosidase activity ([4]; 100 μM Rolipram): 237 ± 67 | β-galactosidase activity ([5]; 50 μM Rolipram): 19 ± 9 | β-galactosidase activity ([5]; 100 μM Rolipram): 20 ± 11 | TNF ([6]; 3 HOURS): 3497 pg/mL | TNF alpha (EtoH = 100.0) ([6]; 3 HOURS): 86.2 | TNF, % EtOH cntrl ([6]; 3 HOURS): 72.4% | TNF ([6]; 20 HOURS): 9362 pg/mL | TNF alpha (EtoH = 100.0) ([6]; 20 HOURS): 86.3 | TNF, % EtOH cntrl ([6]; 20 HOURS): 68.4% | IC50 [7]: > 2000 nM | EC50 [8]: > 200000 nM | EC50 [9]: > 200000 nM

remaining activity at 2 µM [10]: 31% | remaining activity at 2 µM [11]: 16% | remaining activity at 2 µM [12]: 31% | IC50 [13]: < 2000 nM | remaining activity at 2 µM ([14]; 2 micromolar compound, read-out: percent of PDE activity present, PDE7A): 68% | IC50 ([14]; E. coli expressed and purified enzyme, read-out: IC50 (or AC200), PDE7A): > 2000 nM | IC50 [15]: 1500 nM | IC50 [7]: > 2000 nM
SMILES: Cc1c(C(=O)Nc2ccc(F)cc2F)sc2ncnc(N3CCC(C)CC3)c12 [Compound 58]
TNF ([6]; 3 HOURS): 3345 pg/mL | TNF, % EtOH cntrl ([6]; 3 HOURS): 69.2% | TNF ([6]; 20 HOURS): 10030 pg/mL | TNF, % EtOH cntrl ([6]; 20 HOURS): 73.3% | TNF alpha, % vehicle control ([6]; after 3 h.): 61.2% | TNF alpha, % vehicle control ([6]; after 20 h.): 53.8%
